Assay results as given in ChEMBL document CHEMBL1149925, “Application of hygromycin a structure activity relationships to the antibiotic A201A” (1993).
≈ marks a conversion by molar mass, not a printed value.

What was measured:
Pasteurella multocida = test: Tested for antibacterial activity expressed as minimum inhibitory concentration against Pasteurella multocida; assay type: functional
[1] = system: Brachyspira hyodysenteriae; test: Tested for antibacterial activity expressed as minimum inhibitory concentration against Serpulina (Treponema) hyodysenteriae; assay type: functional

SMILES	MIC (Pasteurella multocida) [µg/mL]	MIC [1] [µg/mL]
COc1ccc(/C=C(\C)C(=O)N[C@H]2C(O)[C@H](n3cnc4c(N(C)C)ncnc43)O[C@@H]2CO)cc1 (some centres not stated)	200 (≈ 427 µM)	50 (≈ 107 µM)
C/C(=C\c1ccc(O[C@@H]2O[C@H]([C@H](C)O)[C@@H](O)[C@@H]2O)c(O)c1)C(=O)N[C@H]1C(O)[C@H](n2cnc3c(N(C)C)ncnc32)O[C@@H]1CO (some centres not stated)	200 (≈ 324 µM)	200 (≈ 324 µM)
C=CCOc1ccc(/C=C(\C)C(=O)N[C@H]2C(O)[C@H](n3cnc4c(N(C)C)ncnc43)O[C@@H]2CO)cc1O (some centres not stated)	6.25 (≈ 12.2 µM)	1.56 (≈ 3.06 µM)
C=CCOc1ccc(/C=C(\C)C(=O)N[C@@H]2[C@H](O)[C@@H](O)[C@H]3OCO[C@H]3[C@@H]2O)cc1O	3.13 (≈ 7.68 µM)	0.78 (≈ 1.91 µM)
C=CCOc1ccc(/C=C(\C)C(=O)N[C@H]2C(O)[C@H](n3cnc4c(N(C)C)ncnc43)O[C@@H]2CO)cc1 (some centres not stated)	> 200	50 (≈ 101 µM)
C=CCOc1ccc(/C=C(\C)C(=O)N[C@@H]2[C@H](O)[C@@H](O)[C@H]3OCO[C@H]3[C@@H]2O)cc1	50 (≈ 128 µM)	6.25 (≈ 16 µM)
CO/C(CO[C@H]1O[C@H](C)[C@@H](OC)[C@H](OC)[C@@H]1O)=C1\O[C@@H](Oc2ccc(/C=C(\C)C(=O)NC3C(O)[C@H](n4cnc5c(N(C)C)ncnc54)O[C@@H]3CO)cc2)[C@@H](O)[C@@H]1O (some centres not stated)	3.13 (≈ 3.9 µM)	3.13 (≈ 3.9 µM)
COc1ccc(/C=C(\C)C(=O)N[C@@H]2[C@H](O)[C@@H](O)[C@H]3OCO[C@H]3[C@@H]2O)cc1	> 200	> 200
C/C(=C\c1ccc(O[C@@H]2O[C@H]([C@H](C)O)[C@@H](O)[C@@H]2O)c(O)c1)C(=O)N[C@@H]1[C@H](O)[C@@H](O)[C@H]2OCO[C@H]2[C@@H]1O	6.25 (≈ 12.2 µM)	3.13 (≈ 6.1 µM)
C=CCOc1ccc(/C=C(\C)C(=O)N[C@H]2[C@@H](O)[C@H](OC)O[C@@H]2CO)cc1O	> 200	> 200
CC(=O)[C@H]1O[C@@H](Oc2ccc(/C=C(\C)C(=O)N[C@@H]3[C@H](O)[C@@H](O)[C@H]4OCO[C@H]4[C@@H]3O)cc2O)[C@@H](O)[C@@H]1O [HYGROMYCIN A]	0.78 (≈ 1.52 µM)	0.78 (≈ 1.52 µM)
